Patent US20220372014A1, “NEUROPROTECTIVE COMPOUNDS AND METHODS OF USE THEREOF” (The Johns Hopkins University, priority 2019, published 2022)

Experiments:
MIF = target: T1, MIF (Homo sapiens, UniProt P14174); assay: Nuclease assay of Example 3 (MIF inhibitory activity, Table 4); type: biochemical; design: (%) inhibition of MIF nuclease activity: concentration or dose not given beside the values; settings: nuclease assay of Example 3
T1 sequence (P14174 1-115): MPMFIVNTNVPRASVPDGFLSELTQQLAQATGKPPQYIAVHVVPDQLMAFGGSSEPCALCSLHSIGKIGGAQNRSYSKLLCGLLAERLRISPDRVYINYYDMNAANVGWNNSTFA
Summary of the method: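 Human genomic DNA (200 ng), pcDNA (200 ng) or PS^30-type substrates (1 μM) were incubated with MIF (0.25-8 μM final) in 10 mM Tris-HCl pH 7.0, 10 mM MgCl2, 1 mM DTT at 37 °C for 1 h (pcDNA, small substrates) or 4 h (genomic DNA). Cleavage was assessed by agarose or PAGE electrophoresis with EtBr staining and chemiluminescent detection of biotin-labelled DNA.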

[1] = test system: HeLa cells or neuronal cells; assay: Cell death assay of Example 3 (MNNG, alamarBlue; protection against parthanatos, Table 4); type: cell-based; settings: 1 μM test compound, MNNG-induced cell death, alamarBlue
Summary of the method: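 HeLa or neuronal cells (1×10^4/well) were pretreated 1 h at 37° C with 1 μM compound, exposed to MNNG for 15 min, washed, then re-incubated 18 h with 1 μM compound. Viability was read by alamarBlue fluorescence (ex 560/em 590 nm). Cell death was expressed relative to control wells.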

(%) inhibition of MIF nuclease activity (MIF) [%]	SMILES	(%) inhibition of cell death [1] [%]
0.0	COc1ccc(CC[C@H]2OC(=O)[C@@H]3CCCCN3C(=O)C(=O)C(C)(C)COC(=O)C=CCCN(C)C(=O)[C@@H]3CCCN3C(=O)[C@H](COC(C)(C)C)N(C)C(=O)[C@H](COC(C)(C)C)NC(=O)[C@H](C)N(C)C(=O)COc3cccc2c3)cc1OC [compound 140]	51.0
64.9	COc1ccc(CC[C@H]2OC(=O)[C@@H]3CCCCN3C(=O)C(=O)C(C)(C)COC(=O)C=CCCN(C)C(=O)[C@@H]3CCCN3C(=O)[C@H](COC(C)(C)C)N(C)C(=O)[C@H](Cc3ccc4ccccc4c3)NC(=O)[C@H](C)N(C)C(=O)COc3cccc2c3)cc1OC [compound 26]	71.2
13.6	COc1ccc(CC[C@H]2OC(=O)[C@@H]3CCCCN3C(=O)C(=O)C(C)(C)COC(=O)C=CCCN(C)C(=O)[C@H](Cc3ccc(F)cc3)NC(=O)[C@H](COC(C)(C)C)N(C)C(=O)C(c3ccccc3)NC(=O)[C@H](C)N(C)C(=O)COc3cccc2c3)cc1OC (stereo partly shown) [compound 55]	59.9
31.5	COc1ccc(CC[C@H]2OC(=O)[C@@H]3CCCCN3C(=O)C(=O)C(C)(C)COC(=O)C=CCCN(C)C(=O)[C@H](C(C)C)NC(=O)[C@H](Cc3ccccc3)N(C)C(=O)[C@@H](C)NC(=O)CN(C)C(=O)COc3cccc2c3)cc1OC [compound 74]	52.6
40.2	COc1ccc(CC[C@H]2OC(=O)[C@@H]3CCCCN3C(=O)C(=O)C(C)(C)COC(=O)C=CCCN(C)C(=O)[C@H](Cc3ccc4ccccc4c3)NC(=O)[C@H](Cc3ccccc3)N(C)C(=O)[C@@H](C)NC(=O)CN(C)C(=O)COc3cccc2c3)cc1OC [compound 73]	53.0
10.7	COc1cc(OC)c(OC)cc1CC[C@H]1OC(=O)[C@@H]2CCCCN2C(=O)C(=O)C(C)(C)COC(=O)C=CCCN(C)C(=O)[C@@H]2CCCN2C(=O)[C@H](COC(C)(C)C)N(C)C(=O)C(c2ccccc2)NC(=O)[C@H](C)N(C)C(=O)COc2cccc1c2 (stereo partly shown) [compound 122]	64.3
12.6	COc1ccc(CC[C@H]2OC(=O)[C@@H]3CCCCN3C(=O)C(=O)C(C)(C)COC(=O)C=CCCN(C)C(=O)[C@H](C(C)C)NC(=O)[C@H](C(C)C)N(C)C(=O)[C@@H](Cc3ccccc3)NC(=O)[C@H](CC(C)C)N(C)C(=O)CCC(=O)Nc3cccc2c3)cc1OC [compound 89]	49.9
19.2	COc1ccc(CC[C@H]2OC(=O)[C@@H]3CCCCN3C(=O)C(=O)C(C)(C)COC(=O)C=CCCN(C)C(=O)CNC(=O)[C@H](Cc3ccccc3)N(C)C(=O)[C@@H](C)NC(=O)CN(C)C(=O)COc3cccc2c3)cc1OC [compound 61]	53.8
12.4	COc1ccc(CC[C@H]2OC(=O)[C@@H]3CCCCN3C(=O)C(=O)C(C)(C)COC(=O)C=CCCN(C)C(=O)[C@H](C(C)C)NC(=O)[C@H](COC(C)(C)C)N(C)C(=O)[C@H](Cc3ccc4ccccc4c3)NC(=O)[C@H](C)N(C)C(=O)COc3cccc2c3)cc1OC [compound 29]	57.8
9.1	COc1ccc(CC[C@H]2OC(=O)[C@@H]3CCCCN3C(=O)C(=O)C(C)(C)COC(=O)C=CCCN(C)C(=O)[C@@H]3CCCN3C(=O)[C@H](COC(C)(C)C)N(C)C(=O)[C@H](Cc3ccccc3)NC(=O)[C@H](C)N(C)C(=O)COc3cccc2c3)cc1OC [compound 101]	31.5
6.7	COc1ccc(CC[C@H]2OC(=O)[C@@H]3CCCCN3C(=O)C(=O)C(C)(C)COC(=O)C=CCCN(C)C(=O)[C@@H]3CCCN3C(=O)[C@H](COC(C)(C)C)N(C)C(=O)C(c3ccccc3)NC(=O)[C@H](Cc3ccccc3)N(C)C(=O)COc3cccc2c3)cc1OC (stereo partly shown) [compound 145]	46.6
10.7	COCC[C@@H]1NC(=O)[C@H](COC(C)(C)C)N(C)C(=O)[C@@H](CC(C)C)NC(=O)CN(C)C(=O)COc2cccc(c2)[C@@H](CCc2ccc(OC)c(OC)c2)OC(=O)[C@@H]2CCCCN2C(=O)C(=O)C(C)(C)COC(=O)C=CCCN(C)C1=O [compound 5]	41.7
65.0	COc1ccc(CC[C@H]2OC(=O)[C@@H]3CCCCN3C(=O)C(=O)C(C)(C)COC(=O)C=CCCN(C)C(=O)[C@@H](C)NC(=O)[C@H](COC(C)(C)C)N(C)C(=O)[C@H](Cc3ccc4ccccc4c3)NC(=O)[C@H](C)N(C)C(=O)COc3cccc2c3)cc1OC [compound 18]	78.4

The remaining lines, values behind:

SMILES	(%) inhibition of MIF nuclease activity (MIF) [%]	(%) inhibition of cell death [1] [%]
COc1cccc(CC[C@H]2OC(=O)[C@@H]3CCCCN3C(=O)C(=O)C(C)(C)COC(=O)C=CCCN(C)C(=O)[C@@H]3CCCN3C(=O)[C@H](COC(C)(C)C)N(C)C(=O)C(c3ccccc3)NC(=O)[C@H](C)N(C)C(=O)COc3cccc2c3)c1 (stereo partly shown) [compound 150]	10.7	50.8
COc1ccc(CC[C@H]2OC(=O)[C@@H]3CCCCN3C(=O)C(=O)C(C)(C)COC(=O)C=CCCN(C)C(=O)[C@@H](Cc3ccccc3)NC(=O)[C@H](COC(C)(C)C)N(C)C(=O)[C@@H](CC(C)C)NC(=O)CN(C)C(=O)COc3cccc2c3)cc1OC [compound 9]	16.5	57.4
COc1ccc(CC[C@H]2OC(=O)[C@@H]3CCCCN3C(=O)C(=O)C(C)(C)COC(=O)C=CCCN(C)C(=O)[C@H](CC3CCCCC3)NC(=O)[C@H](COC(C)(C)C)N(C)C(=O)[C@@H](Cc3ccc4ccccc4c3)NC(=O)[C@H](C)N(C)C(=O)COc3cccc2c3)cc1OC [compound 27]	78.4	72.1
COc1ccc(CC[C@H]2OC(=O)[C@@H]3CCCCN3C(=O)C(=O)C(C)(C)COC(=O)C=CCCN(C)C(=O)[C@H]3CCCN3C(=O)[C@H](COC(C)(C)C)N(C)C(=O)C(c3ccccc3)NC(=O)[C@H](C)N(C)C(=O)COc3cccc2c3)cc1OC (stereo partly shown) [compound 91]	25.8	62.7
COc1ccc(CC[C@H]2OC(=O)[C@@H]3CCCCN3C(=O)C(=O)C(C)(C)COC(=O)C=CCCN(C)C(=O)[C@@H]3CCCN3C(=O)[C@H](COC(C)(C)C)N(C)C(=O)C(c3ccccc3)NC(=O)[C@@H](C)N(C)C(=O)COc3cccc2c3)cc1OC (stereo partly shown) [compound 106]	11.9	13.1
COc1ccc(CC[C@H]2OC(=O)[C@@H]3CCCCN3C(=O)C(=O)C(C)(C)COC(=O)C=CCCN(C)C(=O)[C@H](CC3CCCCC3)NC(=O)[C@H](COC(C)(C)C)N(C)C(=O)C(c3ccccc3)NC(=O)CN(C)C(=O)COc3cccc2c3)cc1OC (stereo partly shown) [compound 42]	40.8	53.2
COc1ccc(CC[C@H]2OC(=O)[C@@H]3CCCCN3C(=O)C(=O)C(C)(C)COC(=O)C=CCCN(C)C(=O)[C@@H](Cc3ccccc3)NC(=O)[C@H](COC(C)(C)C)N(C)C(=O)[C@H](Cc3ccc4ccccc4c3)NC(=O)[C@H](C)N(C)C(=O)COc3cccc2c3)cc1OC [compound 24]	40.3	57.4
COc1ccc(CC[C@H]2OC(=O)[C@@H]3CCCCN3C(=O)C(=O)C(C)(C)COC(=O)C=CCCN(C)C(=O)[C@H](c3ccccc3)NC(=O)C(C(C)C)N(C)C(=O)[C@@H](Cc3ccccc3)NC(=O)[C@H](CC(C)C)N(C)C(=O)CCC(=O)Nc3cccc2c3)cc1OC (stereo partly shown) [compound 90]	15.8	48.5
COc1ccc(CC[C@H]2OC(=O)[C@@H]3CCCCN3C(=O)C(=O)C(C)(C)COC(=O)C=CCCN(C)C(=O)[C@H](CC(C)C)NC(=O)[C@H](COC(C)(C)C)N(C)C(=O)[C@@H](CC(C)C)NC(=O)CN(C)C(=O)COc3cccc2c3)cc1OC [compound 6]	30.8	46.5
COc1ccc(CC[C@H]2OC(=O)[C@@H]3CCCCN3C(=O)C(=O)C(C)(C)COC(=O)C=CCCN(C)C(=O)[C@H](Cc3ccc(F)cc3)NC(=O)[C@H](Cc3ccccc3)N(C)C(=O)[C@@H](C)NC(=O)CN(C)C(=O)COc3cccc2c3)cc1OC [compound 70]	25.2	53.8
COc1ccc(CC[C@H]2OC(=O)[C@@H]3CCCCN3C(=O)C(=O)C(C)(C)COC(=O)C=CCCN(C)C(=O)CNC(=O)[C@H](COC(C)(C)C)N(C)C(=O)[C@@H](CC(C)C)NC(=O)CN(C)C(=O)COc3cccc2c3)cc1OC [compound 1]	25.3	43.6
COc1ccc(CC[C@H]2OC(=O)[C@@H]3CCCCN3C(=O)C(=O)C(C)(C)COC(=O)C=CCCN(C)C(=O)CNC(=O)[C@H](COC(C)(C)C)N(C)C(=O)C(c3ccccc3)NC(=O)CN(C)C(=O)COc3cccc2c3)cc1OC (stereo partly shown) [compound 31]	22.9	52.3
COc1ccc(CC[C@H]2OC(=O)[C@@H]3CCCCN3C(=O)C(=O)C(C)(C)COC(=O)C=CCCN(C)C(=O)[C@@H](CC(C)C)NC(=O)[C@H](COC(C)(C)C)N(C)C(=O)[C@@H](CC(C)C)NC(=O)CN(C)C(=O)COc3cccc2c3)cc1OC [compound 7]	30.1	54.5
